Results published in patent US20130267532A1, “CYCLIC AMIDE COMPOUNDS AND THEIR USE IN THE TREATMENT OF DISEASE” (priority 2010, published 2013).
pEC50: −log10 of the molar value.

biological target: T1, Recombinant human TLR7 (Homo sapiens, UniProt Q9NYK1); experiment: Human TLR7 assay (SEAP reporter in HEK293 cells); type: cell-based; settings: TLR7 activation, SEAP induction, overnight incubation at 37° C., 0.1% DMSO
T1 construct: expressed in transfected cells; host or cells: HEK293 cell line stably expressing the pNiFty2-SEAP reporter plasmid
T1 sequence (Q9NYK1 27-1049): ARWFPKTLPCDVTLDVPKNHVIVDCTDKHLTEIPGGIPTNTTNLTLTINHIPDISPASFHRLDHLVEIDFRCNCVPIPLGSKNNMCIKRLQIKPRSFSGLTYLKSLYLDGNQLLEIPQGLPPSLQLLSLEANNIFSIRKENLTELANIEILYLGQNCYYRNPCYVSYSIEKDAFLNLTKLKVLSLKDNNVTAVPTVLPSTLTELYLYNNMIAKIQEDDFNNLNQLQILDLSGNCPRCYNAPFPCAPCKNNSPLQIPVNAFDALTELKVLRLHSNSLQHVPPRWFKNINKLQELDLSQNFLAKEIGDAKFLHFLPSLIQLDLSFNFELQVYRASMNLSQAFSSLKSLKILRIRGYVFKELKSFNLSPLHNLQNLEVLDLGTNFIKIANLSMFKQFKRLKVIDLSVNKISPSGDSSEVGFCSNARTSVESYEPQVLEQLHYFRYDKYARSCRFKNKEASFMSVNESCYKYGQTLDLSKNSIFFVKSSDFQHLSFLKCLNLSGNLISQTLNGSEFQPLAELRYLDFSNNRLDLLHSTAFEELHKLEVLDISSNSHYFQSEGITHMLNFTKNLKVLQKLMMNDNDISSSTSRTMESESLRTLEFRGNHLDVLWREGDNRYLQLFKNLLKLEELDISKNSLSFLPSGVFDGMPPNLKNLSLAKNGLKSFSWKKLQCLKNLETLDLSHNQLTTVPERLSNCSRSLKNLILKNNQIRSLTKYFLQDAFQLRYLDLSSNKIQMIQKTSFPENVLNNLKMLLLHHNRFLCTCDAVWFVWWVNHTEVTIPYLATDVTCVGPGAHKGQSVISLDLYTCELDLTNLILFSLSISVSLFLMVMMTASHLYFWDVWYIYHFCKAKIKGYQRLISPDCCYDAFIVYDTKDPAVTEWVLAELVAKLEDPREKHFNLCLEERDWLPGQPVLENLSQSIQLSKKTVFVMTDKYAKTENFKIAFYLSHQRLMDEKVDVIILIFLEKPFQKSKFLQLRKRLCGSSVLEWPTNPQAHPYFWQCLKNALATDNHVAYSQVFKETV
Description: The ability of compounds to activate TLR7 in vitro was assessed using the human TLR7 assay described below.
Recombinant human TLR7 was stably expressed in a HEK293 cell line already stably expressing the pNiFty2-SEAP reporter plasmid; integration of the reporter gene was maintained by selection with the antibiotic zeocin. The most common variant sequence of human TLR7 (represented by the EMBL sequence AF240467) was cloned into the mammalian cell expression vector pUNO and transfected into this reporter cell-line. Transfectants with stable expression were selected using the antibiotic blasticidin. In this reporter cell-line, expression of secreted alkaline phosphatase (SEAP) is controlled by an NF-κB/ELAM-1 composite promoter comprising five NF-κB sites combined with the proximal ELAM-1 promoter. TLR signaling leads to the translocation of NF-κB and activation of the promoter results in expression of the SEAP gene. TLR7-specific activation was assessed by determining the level of SEAP produced following overnight incubation of the cells at 37° C. with the standard compound in the presence of 0.1% (v/v) dimethylsulfoxide (DMSO). Concentration dependent induction of SEAP production by compounds was expressed as the concentration of compound which produced half of the maximal level of SEAP induction for that compound (EC50).

SMILES	pEC50
CCC[C@@H](CCO)Nc1nc(N)nc(C)c1Cc1ccc(N2CCNCC2=O)cc1OC [Example 5, (S)-1-(4-{[2-Amino-4-(1-hydroxyhexan-3-ylamino)-6-methylpyrimidin-5-yl]methyl}-3-methoxyphenyl)piperazin-2-one]	6.90
CCCCCNc1nc(N)nc(C)c1Cc1ccc(N2CCN(C)CC2=O)cc1OC [Example 2, 1-(4-{[2-Amino-4-methyl-6-(pentylamino)pyrimidin-5-yl]methyl}-3-methoxyphenyl)-4-methylpiperazin-2-one]	7.20
CCC[C@@H](CO)Nc1nc(N)nc(C)c1Cc1ccc(N2CCN(C)CC2=O)cc1OC [Example 4, (S)-1-(4-{[2-Amino-4-(1-hydroxypentan-2-ylamino)-6-methylpyrimidin-5-yl]methyl}-3-methoxyphenyl)-4-methylpiperazin-2-one]	6.70

Now from value to compound:

pEC50	SMILES
7.20	CCCCNc1nc(N)nc(C)c1Cc1ccc(N2CCN(C)CC2=O)cc1OC [Example 1, 1-(4-{[2-Amino-4-(butylamino)-6-methylpyrimidin-5-yl]methyl}-3-methoxyphenyl)-4-methylpiperazin-2-one]
7.60	CCC[C@@H](CCO)Nc1nc(N)nc(C)c1Cc1ccc(N2CCN(C)CC2=O)cc1OC [Example 3, (S)-1-(4-{[2-Amino-4-(1-hydroxyhexan-3-ylamino)-6-methylpyrimidin-5-yl]methyl}-3-methoxyphenyl)-4-methylpiperazin-2-one]
